Laboratory results taken from patent US7728002B2, “Use of pyrrolopyridine compounds for activating PPAR receptors and treatment of conditions involving such receptors” (Laboratoires Fournier S.A., priority 2005, dated 2010).

Assays:
db/db mice = db/db mice model: serum glucose, triglycerides, cholesterol; type: in vivo; details: serum 4 hours after final gavage
Procedure: The test protocol is as follows:
Homozygous male C57BL/Ks-db mice (db/db mice), 11-13 weeks old at the start of the studies, are divided into groups of 9-10 animals. The products are administered orally, once a day for 5 days. A group of mice receives the vehicle alone (methylcellulose solution at 0.5% or 1%). A blood sample is taken from the retro-orbital sinus before treatment and 4 hours after the final gavage. After centrifugation, the serum is collected and the levels of cholesterol, triglycerides and glucose are measured using a multiparameter analyzer with commercial products. The results are expressed as a percentage of variation on the final day relative to the control group.

[1] = test system: cells of murine muscle origin C2C12; test: β-oxidation of 14C-oleate on C2C12 cells differentiated as myotubes; type: cell-based; details: 10 μM, 48 hours incubation
Procedure: A second series of tests was performed with the compounds according to the invention, with the aim of confirming the activity deduced from their affinity for the receptors mentioned previously. This test consists in measuring the β-oxidation on cells of human hepatic origin HuH7 and cells of murine muscle origin C2C12 after differentiation as myotubes. The cells are inoculated in Petri dishes comprising a central well. The products are added to the culture medium and incubated for 48 hours at different concentrations. After incubation for 22 hours, ^14C-radiolabeled oleate (oleate 1-C14) is added to the culture medium. The β-oxidation reaction is stopped two hours later by adding 40% perchloric acid. The CO2 released during the oxidation of the oleate is trapped with KOH solution and then counted. Each test is performed three times. The results are expressed as a percentage of variation relative to the control dishes (dishes without compounds). According to this test, the compounds according to the invention increase the β-oxidation by up to +145% at a concentration of 10 μM on HuH7 cells.

[2] = 10 mg/kg orally once a day for 5 days
[3] = 3 mg/kg orally once a day for 5 days
[4] = 100 mg/kg orally once a day for 5 days

O=C(O)CCCc1cc2nc(C(F)(F)F)ccc2n1S(=O)(=O)c1ccccc1 [Example 20, 1-(Phenylsulfonyl)-5-(trifluoromethyl)-1H-pyrrolo[3,2-b]pyridine-2-butanoic acid]
Cholesterol, percentage of variation relative to the control group (db/db mice; [2]): +13% | Glucose, percentage of variation relative to the control group (db/db mice; [2]): −72% | Triglycerides, percentage of variation relative to the control group (db/db mice; [2]): −65%

CN(CCOc1ccc(CC2SC(=O)NC2=O)cc1)c1ccccn1 (stereo not shown) [Rosiglitazone, rosiglitazone, reference compound]
Cholesterol, percentage of variation relative to the control group (db/db mice; [3]): −30% | Glucose, percentage of variation relative to the control group (db/db mice; [3]): −41% | Triglycerides, percentage of variation relative to the control group (db/db mice; [3]): −52%

CC(C)OC(=O)C(C)(C)Oc1ccc(C(=O)c2ccc(Cl)cc2)cc1 [Fenofibrate, fenofibrate, reference compound]
Cholesterol, percentage of variation relative to the control group (db/db mice; [4]): +32% | Glucose, percentage of variation relative to the control group (db/db mice; [4]): −9% | Triglycerides, percentage of variation relative to the control group (db/db mice; [4]): −7%

Cc1cc(C)cc(S(=O)(=O)n2c(CCCCC(=O)O)cc3nc(Cl)ccc32)c1 [Ex. 259, 5-Chloro-1-[(3,5-dimethylphenyl)sulfonyl]-1H-pyrrolo[3,2-b]pyridine-2-pentanoic acid]
Cholesterol, percentage of variation relative to the control group (db/db mice; [2]): +32% | Glucose, percentage of variation relative to the control group (db/db mice; [2]): −51% | Triglycerides, percentage of variation relative to the control group (db/db mice; [2]): −16%

O=C(O)CCc1cc2nc(Cl)ccc2n1S(=O)(=O)c1ccccc1 [Example 2, 5-Chloro-1-(phenylsulfonyl)-1H-pyrrolo[3,2-b]pyridine-2-propanoic acid]
Cholesterol, percentage of variation relative to the control group (db/db mice; [2]): +41% | Glucose, percentage of variation relative to the control group (db/db mice; [2]): −36% | Triglycerides, percentage of variation relative to the control group (db/db mice; [2]): −32%

O=C(O)CCCc1cc2nc(Cl)ccc2n1S(=O)(=O)c1ccc2ncsc2c1 [Example 4, 1-(6-Benzothiazolylsulfonyl)-5-chloro-1H-pyrrolo[3,2-b]pyridine-2-butanoic acid]
Cholesterol, percentage of variation relative to the control group (db/db mice; [2]): +4% | Glucose, percentage of variation relative to the control group (db/db mice; [2]): −57% | Triglycerides, percentage of variation relative to the control group (db/db mice; [2]): −45%

O=C(O)CCCc1cc2nc(Cl)ccc2n1S(=O)(=O)c1ccccc1 [Example 10, 5-Chloro-1-(phenylsulfonyl)-1H-pyrrolo[3,2-b]pyridine-2-butanoic acid]
increase of β-oxidation, percentage of variation relative to control dishes [1]: 70%

O=C(O)CCCc1cc2nc(Cl)ccc2n1S(=O)(=O)c1ccc(-c2ccncc2)cc1 [Ex. 293, 5-Chloro-1-[[4-(4-pyridyl)phenyl]sulfonyl]-1H-pyrrolo[3,2-b]pyridine-2-butanoic acid]
Cholesterol, percentage of variation relative to the control group (db/db mice; [2]): +16% | Glucose, percentage of variation relative to the control group (db/db mice; [2]): −24% | Triglycerides, percentage of variation relative to the control group (db/db mice; [2]): −15%
